Test results: patent publication US7037502B2, “Peptide with the amino acid sequence of KVLDGQDP having anti-inflammatory properties” (priority 2001, dated 2006)
“Also recorded” adds a separate entry of the source.

What was measured:
[1] = molecular target: T1, TGase (Guinea pig liver, EC 2.3.2.13) (UniProt P08587); assay: Inhibitory effect of synthetic peptides on TGase in vitro ([14C]-putrescine incorporation into succinylated casein); format: biochemical; details: peptides 1×10^−8 M, preincubated 15 min at 37° C.; compared with the peptides known as PLA2 inhibitors
T1 construct: 0.001 U TGase (Guinea pig liver, EC 2.3.2.13, Sigma); purchased Sigma; host or cells: guinea pig liver
T1 sequence (P08587 1-690): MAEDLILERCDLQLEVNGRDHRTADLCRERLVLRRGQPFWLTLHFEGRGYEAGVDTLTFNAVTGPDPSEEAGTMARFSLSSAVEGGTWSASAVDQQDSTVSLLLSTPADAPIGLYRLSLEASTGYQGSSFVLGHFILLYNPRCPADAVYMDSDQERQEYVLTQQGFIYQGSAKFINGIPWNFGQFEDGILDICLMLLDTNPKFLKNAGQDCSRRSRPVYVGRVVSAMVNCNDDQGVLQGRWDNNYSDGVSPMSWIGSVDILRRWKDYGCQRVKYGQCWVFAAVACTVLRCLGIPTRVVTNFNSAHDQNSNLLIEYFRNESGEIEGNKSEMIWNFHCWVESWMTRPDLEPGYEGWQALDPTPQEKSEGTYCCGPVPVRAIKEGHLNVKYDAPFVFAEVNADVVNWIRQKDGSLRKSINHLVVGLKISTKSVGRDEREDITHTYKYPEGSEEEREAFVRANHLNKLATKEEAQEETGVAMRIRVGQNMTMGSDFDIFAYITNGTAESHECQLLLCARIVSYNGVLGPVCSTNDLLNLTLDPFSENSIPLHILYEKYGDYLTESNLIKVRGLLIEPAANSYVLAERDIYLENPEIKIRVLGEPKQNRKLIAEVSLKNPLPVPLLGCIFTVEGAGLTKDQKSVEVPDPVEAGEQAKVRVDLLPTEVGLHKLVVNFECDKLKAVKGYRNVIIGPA
Description: It is needed to inhibit the activity of TGase in order to secure maximum anti-inflammatory activity since the TGase activates PLA2. A established TGase assay method was used to determine the enzymatic activity by measuring the incorporation of [1,4]^14C-putrescine into succinylated casein (Folk J E., et al., Transglutaminase. Methods in Enzymol 1985; 113; 358–375).
To determine the inhibitory activity, 0.001 U TGase (Guinea pig liver, EC 2.3.2.13, Sigma; 1.0 unit will catalyze the formation of […] of hydroxamate per min. from N- -CBZ-Gln-Gly and hydroxylamine at pH 6.0 at 37° C.) was preincubated for 15 minutes with the synthetic peptides in 0.1 ml (1×10^−8 M) at 37° C. before adding the TGase/peptide mixture to the substrate solution (0.5 ml) containing 0.1 M Tris-acetate pH 7.5, 1% succinylated casein, 1 mM EDTA, 10 mM CaCl2, 0.5% lubrol PX, 5 mM DTT, 0.15M NaCl and 0.5 mCi ^14C-putrescine [Dupont-New England Nuclear, Wilmington, […] (118 Ci/mole)]. […] The TCA-insoluble precipitates were collected onto GF/A glass fiber filters, washed with cold 5% TCA, dried and counted. […]
For inhibitory test of the peptides given, each value is the mean of data from three separate experiments (S.D.<10%). The value of TGase activity incubated without peptides was determined as 100% TGase activity that is 4.89 pmole putrescine/hr. % Inhibition was shown in FIG. 2.

[2] = system: allergic conjunctivitis to ragweed (Ambrosia trifida); assay: Allergic conjunctivitis to ragweed in guinea pig: clinical scores (conjunctival edema and redness); format: in vivo, Hartley female guinea pig; details: for Statistical evaluation of clinical scores (Mann-Whitney test), P compared to Dexamethasone / Statistical evaluation of clinical scores (Mann-Whitney test), P compared to Livostine / Statistical evaluation of clinical scores (Mann-Whitney test), P compared to No treatment group: conjunctival edema and redness score 0-4+, 20 min after allergen challenge, 12 eyes per group, eye drops
Method: The peptides of the present invention were analyzed in experimental model of allergic conjunctivitis to ragweed (giant ragweed; Ambrosia trifida) in guinea pig. Hartley strain of guinea pig was selected according to previous reports of conjunctival anaphylaxis (Calonge M., et al., Acta Ophthalmol 68; 470–476, 1990) and females were chosen based on the sex dimorphism of ocular mucosal immunity with the protective role of male hormones (Saruya S., et al., Act Soc Ophthalmol Jap 72; 833–845, 1968). The conjunctival redness and edema are main signs of seasonal allergic conjunctivitis and eosionphil infiltration is the hallmark of the conjunctival histology in patients with allergic conjunctivitis (Abelson M B., et al., Arch Ophthalmol. 101; 555–556, 1983; Butrus S I., et al., Int. Ophthalmol. Clin. 28; 324–328, 1988) 86 Hartley female guinea pigs, 200–250 g were housed in the animal facilities of the Asan Institute for Life Sciences (Korea), given guinea pig chow and water ad libitum, and cared for in accordance with the Declaration of Helsinki and the National Institute of Health Guide to the Care and Use of the Laboratory Animals (Korea). […] On day 15, immunized guinea pigs were divided 14 groups, 6 for each group. 11 anti-inflammatory peptides including new recombinants, dexamethasone eye drop (Maxidex, 0.1% dexamethasone, Alcon) and anti-histamine eye drop (Livostin, levocabastine, Janssen) were used for 13 groups, and no treatment for one group. Normal controls were employed as 6 non-immunized and non-treated guinea pigs. […] All the procedures were followed experimental model of allergic conjunctivitis described by Merayo-Lloves et al (Experimental model of allergic conjunctivitis to ragweed in guinea pig. Curr. Eye Res. 14; 487–494, 1995). Anti-inflammatory peptides were resolved in sterile saline (100 μmol/40 μl concentration). All peptides and dexamethasone eye solutions were challenged 3 hour prior to the last pollen application on day 15, 10 minutes after pollen application, and 4 times thereafter at the 3 hour interval. Conjunctival edema and redness were judged in room light and under an operating microscope (Zeiss, Germany). The evaluation was performed in a masked fashion at 20 min after allergen challenge and each clinical sign was scored on a scale 0–4+ (0 absent, 1+ minimal, 2+ mild, 3+ moderate, 4+ severe), adapted for guinea pig from previous report (Merayo-Lloves et al: Experimental model of allergic conjunctivitis to ragweed in guinea pig. Curr. Eye Res. 14; 487–494, 1995). Clinical scores of each group (12 eyes in each group) were analyzed.

Row | Sequence | TGase activity (FIG. 2), result in words [1] | Statistical evaluation of clinical scores (Mann-Whitney test), P compared to Dexamethasone [2] | Statistical evaluation of clinical scores (Mann-Whitney test), P compared to Livostine [2] | Statistical evaluation of clinical scores (Mann-Whitney test), P compared to No treatment group [2] | Clinical signs (conjunctival redness and edema scores), result in words ([2]; n=12, P<0.01, SD<10%, Mann-Whitney test, listed as SEQ ID NO:2)
1 | KVLDGQDP [Peptide R2, synthetic peptide of the invention] | significantly reduced | 0.796 | 0.515 | 0.000 | statistically significant difference from other groups; also recorded: most effective
2 | KVLDPVKG [Peptide R1, synthetic peptide of the invention] | significantly reduced | 0.000 | 0.000 | 0.965 | 
